# Results: patent publication US20210106703A1, “RADIOIMMUNOCONJUGATES IN COMBINATION WITH OTHER DRUGS AS TREATMENT AGAINST NHL” (Nordic Nanovector ASA, priority 2017, published 2021)
# Where two headings read alike, the source gives them in different places.
# Assays:
# Format in all cases: cell-based, human
# [1] = tested on: Granta 519 cells; assay: Alamar Blue cytotoxicity study; conditions: Homo sapiens; Granta 519, 72 h incubation after seeding; read-out: IC50
# Procedure: (§1) Cells were treated with either Humalutin, olaparib or a combination of both and seeded into 96 well-plates. At each time point after treatment, cells were incubated with Alamar Blue (Thermo Fisher, DALL1100) for 4 hours and fluorescence measurements were performed using a multiplate reader Fluoroskan ascent FL to assess cell proliferation and viability. All experiments were done in duplicates using 2 samples in each experiment. Data were normalized to the untreated controls.
# (§2) Cells were incubated with 0.25, 0.5, 1, 2.5 or 5 μg/ml of Humalutin in cell culture flasks and incubated at 37° C./5% CO2. After 18-20 hours cells were washed and resuspended in fresh medium. Cell bound activity after washing was measured using a calibrated gamma detector (Cobra II auto-gamma detector, Packard Instrument Company, Meriden, Conn., USA). Cell concentration and viability was also measured after washing using Guava ViaCount Cell Dispersal Reagent for Flow Cytometry (Merck GaA, Darmstadt, Germany) and measured in a Guava EasyCyte 12HT (Merck KGaA, Darmstadt, Germany) to determine how well the cells survived the incubation. Cells were seeded in 96 well plates.
# (§3) Cells were seeded in 96 well plates pre-coated with from 1 to 100 μM olaparib in 0.2 ml medium and incubated at 37° C./5% CO2 for 72 hours before the cytotoxic effect was measured using alamar blue cell viability assay.
# (§4) Cells were incubated with either 0, 0.5 μg/ml or 1 μg/ml Humalutin and the same procedure as described before for treatment with humalutin alone and olaparib alone was followed. Concentrations of olaparib used were between 1 and 100 μM.
# (§5) The Chou-Talalay model was used for synergy calculations using the Compusyn software. R (goodness of fit) was calculated for the individual treatments and should be over 0.90 in in vitro culture experiments in order to use the calculated combination index (CI). The CI is an indication of synergy: 0-0.9 is considered synergy. Synergysm grading was used as described in WO2006004917A2. […]
# as §2, with “viability were” for “viability was”, “plates. Alamar blue viability measurements were performed 120 h after seeding.” for “plates.”
# [2] = tested on: DOHH2 cells; assay: Alamar Blue cytotoxicity study; conditions: Homo sapiens, DOHH-2; DOHH2, 72 h incubation after seeding; read-out: IC50
# Procedure: as §1, §2, §3, §4, §5
# as §2, with “viability were” for “viability was”, “plates. Alamar blue viability measurements were performed 120 h after seeding.” for “plates.”
# [3] = tested on: U2932 cells; assay: Alamar Blue cytotoxicity study; conditions: for IC50: Homo sapiens; for Combination Index (Chou-Talalay): 120 h
# Procedure: as §1, §2, §3, §4, §5
# as §2, with “viability were” for “viability was”, “plates. Alamar blue viability measurements were performed 120 h after seeding.” for “plates.”
# Cells were incubated with either 0 (control), 0.5 μg/ml or 1 μg/ml Humalutin for 18 to 20 hours. Cells were then washed and resuspended in fresh medium.
# [4] = tested on: CD133 and CD44 at the DOHH2 cell surface; assay: Expression of stem cell markers after RIT (flow cytometry); conditions: DOHH2, 6 MBq/mL for 18 h, up to 9 days post-RIT
# Procedure: Cells were harvested at 0, 2 h, 18 h and each day from 1 d to 10 d of RIT. At each time point, cells were fixed with PFA 4% for 10 minutes, washed twice with PBS and sterilely stored in PBS at 4° C. Stem cell markers were detected with anti-CD133-FITC (clone: AC133, Milteniy) and anti-CD44-APC (clone: IM7, Merck Millipore). 0.5×10^6 cells were saturated for 1 h in PBS-BSA 0.5%. Next cells were centrifuged and incubated with anti-CD133-FITC (2 μL) and anti-CD44-APC (0.125 μg) for 1 h at room temperature in the dark. Finally, cells were rinsed twice and analysed using Gallios® flow cytometer (Beckman Coulter).
# For a preliminary study, investigation of the expression of CD133 and CD44 at the surface of cells treated for 18 h with 6 MBq/mL ^177Lu-lilotomab and ^177Lu-rituximab was done.
# [5] = tested on: Rec-1 cells; assay: Apoptosis induction (Annexin V/7-AAD, Muse flow cytometer); conditions: Rec-1, 6 MBq/mL radiolabelled mAb for 18 h, peak time 72 h
# Procedure: (§6) Cells were harvested at 0, 2 h, 18 h, 1 d, 2 d, 3 d of RIT. At each time point, apoptosis was detected with […] from Merck Millipore (Annexin V Kit with 7-AAD) in the dark for 30 min at room temperature before analysis using Muse® flow cytometer
# [6] = tested on: Ramos cells; assay: as above; conditions: 6 MBq/mL radiolabelled mAb for 18 h, peak time 72 h
# Procedure: as §6
molecule,measurement,setting,value
CC1(C)CCC(CN2CCN(c3ccc(C(=O)NS(=O)(=O)c4ccc(NCC5CCOCC5)c([N+](=O)[O-])c4)c(Oc4cnc5[nH]ccc5c4)c3)CC2)=C(c2ccc(Cl)cc2)C1 [venetoclax],IC50,[1],331 nM
same,IC50,[2],2980 nM
same,IC50,"[3]; read-out: IC50 at 120 h, U2932, 120 h incubation after seeding",1140 nM
same,IC50,"[3]; U2932, 72 h incubation after seeding, read-out: IC50",4150 nM
same,Combination Index (Chou-Talalay),"[3]; U2932, drug 10 μM + Humalutin 0.5 μg/ml",0.50
same,Combination Index (Chou-Talalay),"[3]; U2932, drug 10 μM + Humalutin 1 μg/ml",0.09
same,Combination Index (Chou-Talalay),"[3]; U2932, drug 40 μM + Humalutin 0.5 μg/ml",0.91
same,Combination Index (Chou-Talalay),"[3]; U2932, drug 40 μM + Humalutin 1 μg/ml",0.23
same,Combination Index (Chou-Talalay),"[3]; U2932, drug 80 μM + Humalutin 0.5 μg/ml",0.54
same,Combination Index (Chou-Talalay),"[3]; U2932, drug 80 μM + Humalutin 1 μg/ml",0.12
same,Combination Index (Chou-Talalay),"[3]; U2932, drug 100 μM + Humalutin 0.5 μg/ml",0.49
same,Combination Index (Chou-Talalay),"[3]; U2932, drug 100 μM + Humalutin 1 μg/ml",0.07
same,Combination Index (Chou-Talalay),"[3]; U2932, venetoclax 0.25 + Humalutin 0.5 μg/ml",0.02
same,Combination Index (Chou-Talalay),"[3]; U2932, venetoclax 0.25 + Humalutin 1 μg/ml",0.12
same,Combination Index (Chou-Talalay),"[3]; U2932, venetoclax 0.5 + Humalutin 0.5 μg/ml",0.01
same,Combination Index (Chou-Talalay),"[3]; U2932, venetoclax 0.5 + Humalutin 1 μg/ml",0.10
same,Combination Index (Chou-Talalay),"[3]; U2932, venetoclax 1 + Humalutin 0.5 μg/ml",0.03
same,Combination Index (Chou-Talalay),"[3]; U2932, venetoclax 1 + Humalutin 1 μg/ml",0.08
same,Combination Index (Chou-Talalay),"[3]; U2932, venetoclax 2.5 + Humalutin 0.5 μg/ml",0.03
same,Combination Index (Chou-Talalay),"[3]; U2932, venetoclax 2.5 + Humalutin 1 μg/ml",0.06
"Lutetium-177 [^177Lu]-lilotomab satetraxetan (conjugate, chains of the INN, looked up, 177Lu satetraxetan chelator conjugate) VH: EIQLQQSGPELVKPGASVKVSCKASGYSFTDYNMYWVKQSHGKSLEWIGYIDPYNGDTTYNQKFKGKATLTVDKSSSTAFIHLNSLTSEDSAVYYCARSPYGHYAMDYWGQGTSVTVSS VL: DIVMTQSHKLLSTSVGDRVSITCKASQDVSTAVDWYQQKPGQSPKLLINWASTRHTGVPDRFTGSGSGTDYTLTISSMQAEDLALYYCRQHYSTPFTFGSGTKLEIK",Proportion of cells expressing CD44 and CD133,[4],strongly increased
same,Apoptosis level,[5],67±18%
same,Apoptosis level,[6],33±8%
